Reference: article PMC6163455 (Biomolecules, 2018)

Legend:
[1] = tested on: T47D cells; assay: live-cell confocal microscopy of β-lactamase internalization; assay type: cell-based, human; details: 4 µM conjugate with SpyC_BLA or unconjugated SpyC_BLA, 2 h, CCF2-AM 1 h, Figure 2g–n
Experimental: (§1) Figure 2 Live-cell confocal microscopy visualizes CPP-mediated β-lactamase internalization. The CPP-mediated uptake of CPP_SpyT/SpyC_BLA conjugates (4 µM) was visualized in CHO-K1 cells (a–f) and T47D cells (g–n). SpyC_BLA was conjugated to CPP_SpyT peptides. […] The degree of uptake is CPP-dependent and visualized by blue fluorescing cells. Bar scale is 50 µm (a–j) or 14.6 µm (k–n).
(§2) Cells were seeded (CHO-K1, 37,500 cells/mL; T47D 37,500 cells/mL) onto 4-well ibiTreat chamber slides (Thermo Fisher Scientific) and incubated for 48 h at 37 °C, 5% CO2. The medium was removed and replaced with medium containing SpyC_BLA/CPP_SpyT conjugated or unconjugated SpyC_BLA proteins and cells were incubated for 2 h at 37 °C, 5% CO2. After incubation, the cells were washed to remove any SpyC_BLA protein that had not internalized, loaded with substrate CCF2-AM (2 µM final concentration in media containing 1% FCS), and incubated for 1 h at room temperature. Live cells were visualized through confocal microscopy. Images were collected using a Nikon C2 Confocal Microscope through a 40× differential interference contrast (DIC) objective after excitation by a 408 nm laser. Bar scales in images represent 50 µm or 14.6 µm (zoom magnification 3.4×).

[2] = tested on: CHO-K1 cells; assay: as above; assay type: cell-based, Chinese hamster; details: 4 µM conjugate with SpyC_BLA or unconjugated SpyC_BLA, 2 h, CCF2-AM 2 µM 1 h, Figure 2a–f
Experimental: as §1, §2

[3] = tested on: CHO-K1 cells; assay: β-lactamase internalization assay (CCF2-AM, flow cytometry); assay type: cell-based, Chinese hamster
Experimental: The β-lactamase internalization assay is based on the simple principle that CPP-dependent intracellular delivery of recombinant β-lactamase protein can be detected by cleavage of the CCF2 substrate in the cytosol (Figure 1a). In brief, CPP sequences and the β-lactamase cargo protein can be brought together by conjugation or can be recombinantly expressed as a CPP_β-lactamase (CPP_BLA) fusion (Figure 1a, step i). The CPP_BLA protein fusions or conjugates are incubated on cells, which are then washed to remove excess protein that has not internalized (Figure 1a, step ii). The cells are incubated further (i.e., loaded) with the CCF2-AM cell-permeable dye for 1 h (Figure 1a, step iii). […] This reaction is measured as a shift in fluorescent signal from green to blue. […]
(§3) To validate the assay, we first used a conjugation approach based on the SpyTag (SpyT) peptide/SpyCatcher (SpyC) protein ligation technology. […] Protein conjugates were incubated on CHO-K1 or T47D cells, measuring the fluorescence shift as percentage of blue fluorescent CHO-K1 or T47D cells after 1 h (Figure 1b,c, respectively). […]
The two phylomer CPPs with the strongest β-lactamase internalization signal and the canonical CPP TAT (positive control) were expressed as direct fusions with β-lactamase (CPP_BLA proteins; sequences in Table A2). […]

[4] = tested on: T47D cells; assay: as above; assay type: cell-based, human; details: CPP_SpyT/SpyC_BLA conjugates or unconjugated SpyC_BLA, 1 h at 37 °C, CCF2-AM 1 µM, Figure 1c, No CPP control n = 3
Experimental: The β-lactamase internalization assay is based on the simple principle that CPP-dependent intracellular delivery of recombinant β-lactamase protein can be detected by cleavage of the CCF2 substrate in the cytosol (Figure 1a). In brief, CPP sequences and the β-lactamase cargo protein can be brought together by conjugation or can be recombinantly expressed as a CPP_β-lactamase (CPP_BLA) fusion (Figure 1a, step i). The CPP_BLA protein fusions or conjugates are incubated on cells, which are then washed to remove excess protein that has not internalized (Figure 1a, step ii). The cells are incubated further (i.e., loaded) with the CCF2-AM cell-permeable dye for 1 h (Figure 1a, step iii). Once inside the cell, CCF2-AM is converted by endogenous cytoplasmic esterases to CCF2, which is retained in the cytosol. In cells where β-lactamase has internalized through CPP activity, CCF2 is cleaved by β-lactamase (Figure 1a, step iv). This reaction is measured as a shift in fluorescent signal from green to blue. […]
as §3

[5] = tested on: CHO-K1 cells; assay: cell fractionation and anti-β-lactamase immunoblotting; assay type: cell-based, Chinese hamster; details: 8 µM, 1.5 h at 37 °C, digitonin cytosol extraction, 4 µg aliquots, anti-β-lactamase antibody, Figure S1
Experimental: Supplementary Information
Supplementary Figures: β-Lactamase Tools for Establishing Cell Internalization and Cytosolic
Delivery of Cell Penetrating Peptides
Figure S1. Verification of cell penetrating peptides (CPP)-mediated β-lactamase internalization by immunoblotting. MW: molecular weight.
Aliquots (4 µg) of cytosolic and membrane soluble CHO-K1 cell fractions from β-lactamase assays were separated by sodium dodecyl sulfate–polyacrylamide gel electrophoresis (SDS-PAGE) through a 4-12% (w/v) polyacrylamide Bis-Tris gel, transferred to polyvinylidene difluoride (PVDF) membrane, and immunoblotted. β-lactamase conjugated (e.g., 1746_SpyT/SpyC_BLA) or fused (e.g., 1746_BLA recombinant) to 1746c27 and 1746 Phylomer cell penetrating peptides (CPPs) was detected in the cytosolic fraction to varying extents, while TAT-conjugated β-lactamase was predominantly detected in the membrane fraction of cell lysates. […]
delivered into the cytosol by the 1746 CPP. Internalization of unconjugated SpyC_BLA protein was not detected, either on its own (SpyC_BLA (no CPP)) or in the presence of 1746c27 peptide (1746c27, SpyC_BLA), illustrating there is no bystander uptake effect. […]
Aliquots of extracted fractions (4 µg) were separated through a 4–12% Bis-Tris gel (Invitrogen, Carlsbad, CA, USA). Protein expression in the fractions was detected using monoclonal anti-β- […]

GRKKRRQRRRGASAHIVMVDAYKPTKG [TAT_SpyT, reference compound]
uptake of SpyC_BLA visualized by blue fluorescing cells [1]: enabled CPP-dependent uptake of SpyC_BLA
uptake of SpyC_BLA visualized by blue fluorescing cells [2]: enabled CPP-dependent uptake of SpyC_BLA

SpyC_BLA: recombinantly expressed SpyCatcher_β-lactamase protein; unconjugated it is the 'No CPP' negative control
uptake of SpyC_BLA visualized by blue fluorescing cells [1]: minimal evidence of internalization
internalization of CPP-conjugated SpyC_BLA (percentage of blue viable cells) ([3]; CPP_SpyT/SpyC_BLA conjugates or unconjugated SpyC_BLA, 0.5–4 µM, 1 h at 37 °C, CCF2-AM 2 µM, Figure 1b, No CPP control n = 7): does not internalize
internalization of recombinantly expressed CPP_β-lactamase fusion protein (percentage of blue viable cells) ([3]; recombinant CPP_BLA fusion proteins, SpyC_BLA as negative control, Figure 1d): does not internalize
internalization of CPP-conjugated SpyC_BLA (percentage of blue viable cells) [4]: does not internalize
β-lactamase detected in cytosolic and membrane cell fractions (immunoblot) [5]: not detected
uptake of SpyC_BLA visualized by blue fluorescing cells [2]: minimal evidence of internalization

PLTQRTLQRGKKPKQRQNWKKARTSSAKTAPKTVVSRTTSQRKGASAHIVMVDAYKPTKG [0169_SpyT, phylomer CPP 0169 synthesized as SpyTag fusion]
uptake of SpyC_BLA visualized by blue fluorescing cells [2]: enabled CPP-dependent uptake of SpyC_BLA

RKQKSLQTKLAENPPVPRKKRQSRPRWKQWLQKGASAHIVMVDAYKPTKG [0084_SpyT, phylomer CPP 0084 synthesized as SpyTag fusion]
uptake of SpyC_BLA visualized by blue fluorescing cells [2]: enabled CPP-dependent uptake of SpyC_BLA

PLKPKKPKTQEKKKKQPPKPKKPKTQEKKKKQPPKPKRGASAHIVMVDAYKPTKG [1746_SpyT, phylomer CPP 1746 synthesized as SpyTag fusion]
uptake of SpyC_BLA visualized by blue fluorescing cells [1]: enabled CPP-dependent uptake of SpyC_BLA
uptake of SpyC_BLA visualized by blue fluorescing cells [2]: enabled CPP-dependent uptake of SpyC_BLA

KKKKQPPKPKKPKTQEKKKKQPPKPKRGASAHIVMVDAYKPTKG [1746c27_SpyT, phylomer CPP 1746c27 synthesized as SpyTag fusion]
uptake of SpyC_BLA visualized by blue fluorescing cells [1]: enabled CPP-dependent uptake of SpyC_BLA
uptake of SpyC_BLA visualized by blue fluorescing cells [2]: enabled CPP-dependent uptake of SpyC_BLA
